# In ChEMBL document CHEMBL1201862, “PubChem BioAssay data set” (2004):
#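 In this assay, cells in 96-well plates receive the compound at five concentrations for 48 hours. Endpoints are linearly interpolated between the surrounding concentrations. GI50 marks 50% less growth.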 Activity calls are given as the source filed them. Rule as the data show it: active = GI50 up to about 1.1 µM and inactive = higher.
# Tests used:
# Assay in all cases: NCI anticancer screen, dose series, 48 h
# A549 = test system: A549
# CAKI-1 = test system: CAKI-1
# COLO 205 = test system: COLO 205
# DU-145 = test system: DU-145
# HCT-116 = test system: HCT-116
# HT-29 = test system: HT-29
# KM12 = test system: KM12
# MCF7 = test system: MCF7
# MDA-MB-231 = test system: MDA-MB-231
# MDA-MB-435 = test system: MDA-MB-435
# Malme-3M = test system: Malme-3M
# OVCAR-3 = test system: OVCAR-3
# PC-3 = test system: PC-3
# SF-539 = test system: SF-539
# SK-MEL-2 = test system: SK-MEL-2
# SW-620 = test system: SW-620
# U-251 = test system: U-251
# UACC-62 = test system: UACC-62
# OVCAR-4 = test system: OVCAR-4
Compound,GI50 (A549),GI50 (CAKI-1),GI50 (COLO 205),GI50 (DU-145),GI50 (HCT-116),GI50 (HT-29),GI50 (KM12),GI50 (MCF7),GI50 (MDA-MB-231),GI50 (MDA-MB-435),GI50 (Malme-3M),GI50 (OVCAR-3),GI50 (PC-3),GI50 (SF-539),GI50 (SK-MEL-2),GI50 (SW-620),GI50 (U-251),GI50 (UACC-62),GI50 (OVCAR-4)
O=C(O)c1cc(-c2ccc3cc(O)c(O)cc3c2)ccc1O,> 12.5 µM (inactive),> 12.5 µM (inactive),> 12.5 µM (inactive),> 12.5 µM (inactive),> 12.5 µM (inactive),> 12.5 µM (inactive),> 12.5 µM (inactive),> 12.5 µM (inactive),> 12.5 µM (inactive),5.73 µM (inactive),> 12.5 µM (inactive),> 12.5 µM (inactive),> 12.5 µM (inactive),> 12.5 µM (inactive),> 12.5 µM (inactive),> 12.5 µM (inactive),> 12.5 µM (inactive),> 12.5 µM (inactive),
Oc1ccc(C(c2ccc(O)cc2)c2ccc(O)cc2)cc1,35.9 µM (inactive),16.1 µM (inactive),7.16 µM (inactive),27.4 µM (inactive),16.8 µM (inactive),19 µM (inactive),16.7 µM (inactive),32.4 µM (inactive),16.3 µM (inactive),19.7 µM (inactive),16.5 µM (inactive),,24 µM (inactive),20.8 µM (inactive),19.8 µM (inactive),26.8 µM (inactive),23.2 µM (inactive),14.5 µM (inactive),9.71 µM (inactive)
O=S(=O)(O)c1cc(/N=N/c2cccc3ccccc23)c(O)c2ncccc12,35.4 µM (inactive),> 100 µM (inactive),33.4 µM (inactive),> 100 µM (inactive),34.9 µM (inactive),24.8 µM (inactive),80.2 µM (inactive),23.7 µM (inactive),> 100 µM (inactive),> 100 µM (inactive),,22.5 µM (inactive),55.6 µM (inactive),56.1 µM (inactive),82 µM (inactive),59.8 µM (inactive),42 µM (inactive),36.2 µM (inactive),46 µM (inactive)
COc1ccc(/C=C2\CCC(C)c3c2nc(N)c(C#N)c3-c2ccc(OC)c(OC)c2)cc1OC (configuration not stated),,58.5 µM (inactive),6.56 µM (inactive),20.7 µM (inactive),8.81 µM (inactive),6.25 µM (inactive),7.6 µM (inactive),5.65 µM (inactive),9.89 µM (inactive),10.8 µM (inactive),16.5 µM (inactive),9.29 µM (inactive),2.92 µM (inactive),27.4 µM (inactive),2.42 µM (inactive),> 100 µM (inactive),9.44 µM (inactive),88.1 µM (inactive),
COC1CC2C=CC3C4OC2(/C(C)=C/C(C)C(C(C)O)OC1=O)C3C(O)C(C)C4OC(=O)c1ccc[nH]1 (configuration not stated),> 100 µM (inactive),> 100 µM (inactive),> 100 µM (inactive),82 µM (inactive),49.3 µM (inactive),66.8 µM (inactive),21 µM (inactive),94.4 µM (inactive),> 100 µM (inactive),58.1 µM (inactive),,> 100 µM (inactive),46.6 µM (inactive),59.6 µM (inactive),> 100 µM (inactive),> 100 µM (inactive),96.2 µM (inactive),> 100 µM (inactive),74 µM (inactive)
CC(=O)O[C@H]1C(=O)[C@@]2(C)[C@H]([C@H](OC(=O)c3ccccc3)[C@]3(O)C[C@H](OC(=O)[C@H](O)[C@@H](NC(=O)c4ccc(N)cc4)c4ccccc4)C(C)=C1C3(C)C)[C@]1(OC(C)=O)CO[C@@H]1C[C@@H]2O,0.00847 µM (active),4.66 µM (inactive),< 0.005 µM (active),0.0191 µM (active),< 0.005 µM (active),< 0.005 µM (active),< 0.005 µM (active),< 0.005 µM (active),0.22 µM (active),0.0158 µM (active),,< 0.005 µM (active),< 0.005 µM (active),< 0.005 µM (active),< 0.005 µM (active),< 0.005 µM (active),< 0.005 µM (active),0.00815 µM (active),> 31.8 µM (inactive)
CCCCCCCCCCCCP(=O)(O)OCC(N)C(=O)O (configuration not stated),24.8 µM (inactive),49.9 µM (inactive),45.8 µM (inactive),40.4 µM (inactive),13.3 µM (inactive),33.7 µM (inactive),,42.1 µM (inactive),16.4 µM (inactive),18.3 µM (inactive),> 100 µM (inactive),18.7 µM (inactive),16 µM (inactive),20.7 µM (inactive),27.9 µM (inactive),40.3 µM (inactive),11.4 µM (inactive),,76.2 µM (inactive)
COc1nc2c(c(=O)n1C)N=C(c1ccc(Cl)cc1)CC(c1ccccc1)N2 (configuration not stated),36.5 µM (inactive),26.9 µM (inactive),36 µM (inactive),33.3 µM (inactive),22.7 µM (inactive),18.7 µM (inactive),16.7 µM (inactive),14.8 µM (inactive),23.3 µM (inactive),39 µM (inactive),,35.1 µM (inactive),37.7 µM (inactive),17.7 µM (inactive),18.7 µM (inactive),46.3 µM (inactive),35.1 µM (inactive),17.6 µM (inactive),13.3 µM (inactive)
COC(=O)[C@@H]1[C@H](O)CC[C@H]2[C@@]1(C)CC[C@@H](C)[C@]2(COC(C)=O)CC(=O)c1ccoc1,> 50 µM (inactive),> 50 µM (inactive),> 50 µM (inactive),> 50 µM (inactive),> 50 µM (inactive),> 50 µM (inactive),> 50 µM (inactive),> 50 µM (inactive),> 50 µM (inactive),> 50 µM (inactive),,> 50 µM (inactive),> 50 µM (inactive),> 50 µM (inactive),> 50 µM (inactive),> 50 µM (inactive),> 50 µM (inactive),20.9 µM (inactive),25.2 µM (inactive)
C=C(C)[C@@H]1CCc2c(c(C)cc(O)c(=O)c2O)C1,1.17 µM (inactive),0.13 µM (active),1.63 µM (inactive),2.18 µM (inactive),0.156 µM (active),3.01 µM (inactive),3.03 µM (inactive),1.48 µM (inactive),> 52.1 µM (inactive),3.13 µM (inactive),3.43 µM (inactive),,3.85 µM (inactive),0.6 µM (active),4.79 µM (inactive),0.643 µM (active),1.3 µM (inactive),1.6 µM (inactive),0.146 µM (active)
O=C1/C(=C/Cc2ccco2)N=C(c2ccccc2)N1c1nc2ccc(Sc3ccccc3)cc2[nH]1,29.8 µM (inactive),25.4 µM (inactive),18.2 µM (inactive),23.1 µM (inactive),17.8 µM (inactive),25 µM (inactive),16.7 µM (inactive),14 µM (inactive),20.5 µM (inactive),5.52 µM (inactive),,21.9 µM (inactive),22.9 µM (inactive),28.5 µM (inactive),16.1 µM (inactive),34 µM (inactive),19.7 µM (inactive),20.7 µM (inactive),24.2 µM (inactive)
C=C1C[C@@H]2O[C@H]3[C@H]4[C@@H](C[C@@H](C)[C@@H](OC(C)=O)[C@H]42)[C@@H](C)CO[C@@]3(C)[C@H](OC(=O)CCCCCCC)C[C@H]1O,18.2 µM (inactive),14.8 µM (inactive),16.4 µM (inactive),14.9 µM (inactive),16.5 µM (inactive),20.1 µM (inactive),16.7 µM (inactive),21.4 µM (inactive),13.8 µM (inactive),18.7 µM (inactive),,22.5 µM (inactive),15.3 µM (inactive),23.4 µM (inactive),20.3 µM (inactive),21.4 µM (inactive),16.9 µM (inactive),16.3 µM (inactive),12.8 µM (inactive)
CCOC(=O)CCCn1nnc(C(=O)OCC)c1C(=O)OCC,> 100 µM (inactive),> 100 µM (inactive),> 100 µM (inactive),> 100 µM (inactive),> 100 µM (inactive),> 100 µM (inactive),> 100 µM (inactive),> 100 µM (inactive),> 100 µM (inactive),> 100 µM (inactive),> 100 µM (inactive),,> 100 µM (inactive),> 100 µM (inactive),> 100 µM (inactive),> 100 µM (inactive),> 100 µM (inactive),> 100 µM (inactive),> 100 µM (inactive)
Cc1cccc2oc3c(CC(=O)O)cccc3c(=O)c12,> 100 µM (inactive),> 100 µM (inactive),> 100 µM (inactive),> 100 µM (inactive),> 100 µM (inactive),> 100 µM (inactive),> 100 µM (inactive),> 100 µM (inactive),> 100 µM (inactive),> 100 µM (inactive),> 100 µM (inactive),> 100 µM (inactive),> 100 µM (inactive),> 100 µM (inactive),5.16 µM (inactive),> 100 µM (inactive),> 100 µM (inactive),,> 100 µM (inactive)
CN(C)Cc1cc(/C=C/C(=O)c2ccc(Br)cc2)cc(CN(C)C)c1O,29.2 µM (inactive),8.47 µM (inactive),14.6 µM (inactive),15.7 µM (inactive),14.8 µM (inactive),18.8 µM (inactive),13.4 µM (inactive),22.6 µM (inactive),14.7 µM (inactive),16.9 µM (inactive),16.7 µM (inactive),20.8 µM (inactive),26.6 µM (inactive),13.1 µM (inactive),26.2 µM (inactive),19.1 µM (inactive),,20.4 µM (inactive),
